“Also recorded” adds a separate entry of the source.
Tested on: TH2AF1
Assay: TH2AF1 expression in lung of C57BL/6 mice after intratracheal instillation of recombinant cytokines
Type: in vivo, mouse
Settings: recombinant cytokine instilled into trachea of C57BL/6 mice, FIG. 5
Protocol: To confirm that the expression of IL-9 was critically related to the expression of TH2AF1 and to control for genetic background specifically, recombinant murine IL-9 was introduced into the lung of murine strain C57BL/6. Recombinant IL-9 was instilled into the trachea of anesthetized mice by addition of 50 μl of a 0.1 mg/ml IL-9 solution or vehicle alone (0.1% bovine serum albumin) daily for ten days. After ten days, the mice were euthanized and lungs extracted for either RNA expression analysis using Trizol as described by the manufacturer (Gibco-BRL) or Western blot analysis to determine levels of IL-9 instilled.
Expression of TH2AF1 RNA was measured as described in Example 3. […] Ribosomal RNAs (rRNA, lower panel) were stained using ethidium bromide (lower panel) to control for RNA loading.

Molecule	induction of TH2AF1 expression in the lung (steady state mRNA)
interferon gamma: recombinant TH1 associated cytokine	did not induce and not
IL-9: recombinant murine IL-9, TH2 associated cytokine (protein, UniProt P15247 19-144, looked up) Interleukin-9: QRCSTTWGIRDTNYLIENLKDDPPSKCSCSGNVTSCLCLSVPTDDCTTPCYREGLLQLTNATQKSRLLPVFHRVKRIVEVLKNITCPSFSCEKPCNQTMAGNTLSFLKSLLGTFQKTEMQRQKSRP	expressed; also recorded: induced the expression

— US20080096981A1, “Antibodies against inducible TH2 cell factors” (Genaera Corporation, priority 1999, published 2008)
